Assay results taken from article PMC7559231, “Drug-induced cholestasis assay in primary hepatocytes” (MethodsX, 2020).
Where two headings read alike, the source gives them in different places.

Key:
[1] = set-up: method as in per compound in column References of Table 3 ([3], [24]-[44]); conditions: mean total peak plasma concentration in humans; ref per compound in Table 3 ([3], [24]-[44]); cited from earlier work
[2] = system: sandwich-cultured human hepatocytes; conditions: SCHH, ref [6],[7], cited from earlier work; for DICI 24 h Mean: 24 h exposure; for DICI 48 h Mean: 48 h exposure
[3] = system: sandwich-cultured human hepatocytes; assay: Drug-induced cholestasis (DIC) assay: urea formation in sandwich-cultured human hepatocytes with and without the bile salt mixture; conditions: lowest in vitro concentration with DICI < 0.78 / Cmax,total; for DICI-based SM obtained with the ‘original’ LOAEL method 24 h: 24 h incubation; for DICI-based SM obtained with the ‘original’ LOAEL method 48 h: 48 h incubation
Text: Drug-induced cholestasis (DIC) is a major cause of attrition during drug development and post-marketing withdrawal. Early detection of DIC is crucial for avoiding financial losses and improving drug safety. Preclinical assays for DIC detection often rely on evaluation of the test compound towards individual cellular targets such as their inhibitory potential towards the bile salt export pump (BSEP) by using BSEP membrane vesicles. However, the underlying mechanisms of DIC development are more complex involving multiple other transporters and nuclear receptors. A more comprehensive in vitro model such as sandwich-cultured human hepatocytes (SCHH) are more suited due to the presence of metabolizing enzymes and transporters relevant to bile salt disposition. The assay described here relies on changes in the ability of SCHH to produce urea from ammonia in the absence and presence of a (patho-)physiologically relevant bile salt mixture. Ammonia is detoxified in the hepatocyte by the urea cycle to form non-toxic urea. Measuring changes in urea production allows for the quantitative evaluation of the hepatocyte's biochemical and functional integrity. The colorimetric quantitation of urea formation is based on the reaction between urea and diacetylmonoxime.
By determining the ratio of urea formation after incubation with test compound in absence and in presence of the bile salt mixture, the DIC index (DICI) value can be calculated. […] It was previously established that a compound with a SM below 30 can be considered to display increased risk for causing cholestasis in the clinic.
If longer incubations are required (e.g. 48 h), the medium is changed again after 24 h (day 6) with fresh medium containing the same initial concentrations of test compound and bile salts as 24 h before.
• Solution 1: culture medium with no compound and 0.2% DMSO. […] This solution should be filtered through a 0.2 µm filter and prewarmed for 30 min at 37°C. • Solution 4: culture medium with double concentrated test compound. […] This solution should be filtered through a 0.2 µm filter and prewarmed for 30 min at 37°C. • Solution 5: control medium with bile salts, prepared by mixing solution 1 and solution 2 in a 1:1 ratio. • Solution 6: culture medium with positive control without bile salts, prepared by mixing solution 1 and solution 3 in a 1:1 ratio. • Solution 7: culture medium with positive control with bile salts, prepared by mixing solution 2 and solution 3 in a 1:1 ratio. • Solution 8: culture medium with test compound without bile salts, prepared by mixing solution 1 and solution 4 in a 1:1 ratio. • Solution 9: culture medium with test compound with bile salts, prepared by mixing solution 2 and solution 4 in a 1:1 ratio.
• 1. On day 5, aspirate the medium and preincubate the cells with solution 1, solution 6 or solution 8 for 2 h. Note: this preincubation step is performed to enable the compounds to interact with the cellular machinery. • 2. After 2 h, aspirate the medium and immediately incubate the cells with solution 1, solution 5, solution 6, solution 7, solution 8 or solution 9 for 22 h.
The urea assay is performed on day 6 or day 7 for 24 h and 48 h incubations, respectively.
• Solutions for the color reagent. […] Note: perform this procedure on ice as this is an exothermic reaction. Wear appropriate protective gear. • ○ Solution B prepared by mixing the thiosemicarbazide solution and the diacetyl monoxime in a 1:1 ratio. • Incubation buffer: HBSS containing 10 mM HEPES, 2 mM glutamine, 10 mM ammonium chloride and 3 mM ornithine, filtered through a 0.2 µm filter and prewarmed at 37°C. • 96-well thermostable plate with aluminum cover slip.
• 1. Aspirate the culture medium. • 2. Wash the wells twice with 250 µL prewarmed incubation buffer. Aspirate the remaining buffer. • 3. Add 125 µL prewarmed incubation buffer to each well and keep the plate at 37°C for 1 h. • 4.

## CC(C)c1nc(CN(C)C(=O)N[C@H](C(=O)N[C@@H](Cc2ccccc2)C[C@H](O)[C@H](Cc2ccccc2)NC(=O)OCc2cncs2)C(C)C)cs1 [Ritonavir, ritonavir]
[1]
  Cmax,total: 13240 nM

## CCC(=O)O[C@@H]1CC(=O)O[C@H](C)C/C=C/C=C/[C@H](O)[C@H](C)C[C@H](CC=O)[C@H](O[C@@H]2O[C@H](C)[C@@H](O[C@H]3C[C@@](C)(O)[C@@H](OC(=O)CC)[C@H](C)O3)[C@H](N(C)C)[C@H]2O)[C@H]1OC [Midecamycin, midecamycin]
[2]; 100 µM test compound
  DICI 24 h Mean: 0.71
  DICI 48 h Mean: 1.07
[1]
  Cmax,total: 2000 nM
[3]
  DICI-based SM obtained with the ‘original’ LOAEL method 24 h: 50
  DICI-based SM obtained with the ‘original’ LOAEL method 48 h: 50

## O=C1CC2(CCCC2)CC(=O)N1CCCCN1CCN(c2ncccn2)CC1 [Buspirone, buspirone]
[2]; 0.5 µM test compound
  DICI 24 h Mean: 0.69
  DICI 48 h Mean: 0.82
[2]; 1 µM test compound
  DICI 24 h Mean: 0.87
  DICI 48 h Mean: 0.90
[2]; 5 µM test compound
  DICI 24 h Mean: 0.74
  DICI 48 h Mean: 0.95
[2]; 10 µM test compound
  DICI 24 h Mean: 0.82
  DICI 48 h Mean: 0.95
[2]; 25 µM test compound
  DICI 24 h Mean: 0.84
  DICI 48 h Mean: 0.71
[2]; 50 µM test compound
  DICI 24 h Mean: 0.68
  DICI 48 h Mean: 0.48
[2]; 150 µM test compound
  DICI 24 h Mean: 0.53
  DICI 48 h Mean: 0.37
[1]
  Cmax,total: 10 nM
[3]
  DICI-based SM obtained with the ‘original’ LOAEL method 24 h: 5000
  DICI-based SM obtained with the ‘original’ LOAEL method 48 h: 15000

## CCN(CC)C(=O)/C(C#N)=C/c1cc(O)c(O)c([N+](=O)[O-])c1 [Entacapone, entacapone]
[2]; 10 µM test compound
  DICI 24 h Mean: 1.11
  DICI 48 h Mean: 1.02
[2]; 30 µM test compound
  DICI 24 h Mean: 1.07
  DICI 48 h Mean: 0.98
[2]; 130 µM test compound
  DICI 24 h Mean: 0.62
  DICI 48 h Mean: 0.10
[1]
  Cmax,total: 4340 nM
[3]
  DICI-based SM obtained with the ‘original’ LOAEL method 24 h: 29.95
  DICI-based SM obtained with the ‘original’ LOAEL method 48 h: 29.95

## CCOC(=O)CN[C@@H](C(=O)N1CC[C@H]1C(=O)NCc1ccc(/C(N)=N\O)cc1)C1CCCCC1 [Ximelagatran, ximelagatran]
[2]; 25 µM test compound
  DICI 24 h Mean: 0.85
  DICI 48 h Mean: 0.95
[2]; 50 µM test compound
  DICI 24 h Mean: 0.95
  DICI 48 h Mean: 0.93
[2]; 150 µM test compound
  DICI 24 h Mean: 1.02
  DICI 48 h Mean: 1.05
[1]
  Cmax,total: 300 nM
[3]
  DICI-based SM obtained with the ‘original’ LOAEL method 24 h: 500
  DICI-based SM obtained with the ‘original’ LOAEL method 48 h: 500

## CC(=O)CC(c1ccccc1)c1c(O)c2ccccc2oc1=O (stereo not shown) [Warfarin, warfarin]
[2]; 500 µM test compound
  DICI 24 h Mean: 1.31
[3]
  DICI-based SM obtained with the ‘original’ LOAEL method 24 h: 71.74

## CCc1ccc(CCOc2ccc(CC3SC(=O)NC3=O)cc2)nc1 (stereo not shown) [Pioglitazone, pioglitazone]
[2]; 50 µM test compound
  DICI 24 h Mean: 1.15
[2]; 100 µM test compound
  DICI 24 h Mean: 1.00
[2]; 300 µM test compound
  DICI 24 h Mean: 0.94
[1]
  Cmax,total: 2950 nM
[3]
  DICI-based SM obtained with the ‘original’ LOAEL method 24 h: 101.69
  DICI-based SM obtained with the ‘original’ LOAEL method 48 h: 101.69

## COC(=O)N[C@H](C(=O)N[C@@H](Cc1ccccc1)[C@@H](O)CN(Cc1ccc(-c2ccccn2)cc1)NC(=O)[C@@H](NC(=O)OC)C(C)(C)C)C(C)(C)C [Atazanavir, atazanavir]
[2]; 50 µM test compound
  DICI 24 h Mean: 0.87
  DICI 48 h Mean: 0.86
[2]; 150 µM test compound
  DICI 24 h Mean: 1.19
  DICI 48 h Mean: 0.73
[1]
  Cmax,total: 4820 nM
[3]
  DICI-based SM obtained with the ‘original’ LOAEL method 24 h: 31.12
  DICI-based SM obtained with the ‘original’ LOAEL method 48 h: 31.12

## CN(C)CCCN1c2ccccc2Sc2ccc(Cl)cc21 [Chlorpromazine, chlorpromazine]
[2]; 10 µM test compound
  DICI 24 h Mean: 0.48
[1]
  Cmax,total: 37.6 nM
[3]
  DICI-based SM obtained with the ‘original’ LOAEL method 24 h: 265.96

## C1CCC(C(CC2CCCCN2)C2CCCCC2)CC1 (stereo not shown) [Perhexiline, perhexiline]
[2]; 3 µM test compound
  DICI 24 h Mean: 1.00
  DICI 48 h Mean: 0.80
[2]; 9 µM test compound
  DICI 24 h Mean: 1.03
  DICI 48 h Mean: 0.98
[2]; 65 µM test compound
  DICI 24 h Mean: 1.10
  DICI 48 h Mean: 1.02
[3]
  DICI-based SM obtained with the ‘original’ LOAEL method 24 h: 30.09
  DICI-based SM obtained with the ‘original’ LOAEL method 48 h: 30.09

## CCc1nn(CCCN2CCN(c3cccc(Cl)c3)CC2)c(=O)n1CCOc1ccccc1 [Nefazodone, nefazodone]
[2]; 10 µM test compound
  DICI 24 h Mean: 0.69
  DICI 48 h Mean: 1.18
[2]; 30 µM test compound
  DICI 24 h Mean: 0.77
  DICI 48 h Mean: 0.37
[2]; 130 µM test compound
  DICI 24 h Mean: 1.09
[1]
  Cmax,total: 4260 nM
[3]
  DICI-based SM obtained with the ‘original’ LOAEL method 48 h: 7.04

## Clc1ccccc1CN1CCc2sccc2C1 [Ticlopidine, ticlopidine]
[1]
  Cmax,total: 2898 nM

## CO[C@H]1C[C@H](O[C@H]2[C@H](C)[C@@H](O[C@@H]3O[C@H](C)C[C@H](N(C)C)[C@H]3OC(C)=O)[C@@H](C)C[C@@]3(CO3)C(=O)[C@H](C)[C@@H](OC(C)=O)[C@@H](C)[C@@H](C)OC(=O)[C@@H]2C)O[C@@H](C)[C@@H]1OC(C)=O [Troleandomycin, troleandomycin]
[2]; 10 µM test compound
  DICI 24 h Mean: 1.00
  DICI 48 h Mean: 0.83
[2]; 12.5 µM test compound
  DICI 24 h Mean: 1.41
[2]; 20 µM test compound
  DICI 24 h Mean: 1.12
  DICI 48 h Mean: 0.91
[2]; 25 µM test compound
  DICI 24 h Mean: 1.13
[2]; 50 µM test compound
  DICI 24 h Mean: 0.93
[2]; 100 µM test compound
  DICI 24 h Mean: 0.97

## CN(C)C(=N)N=C(N)N [Metformin, metformin]
[2]; 150 µM test compound
  DICI 24 h Mean: 1.09
  DICI 48 h Mean: 1.34
[2]; 300 µM test compound
  DICI 24 h Mean: 1.03
  DICI 48 h Mean: 1.26
[2]; 900 µM test compound
  DICI 24 h Mean: 1.12
  DICI 48 h Mean: 1.18
[1]
  Cmax,total: 7750 nM

## CN(CCOc1ccc(CC2SC(=O)NC2=O)cc1)c1ccccn1 (stereo not shown) [Rosiglitazone, rosiglitazone]
[3]
  DICI-based SM obtained with the ‘original’ LOAEL method 24 h: 56.31
